Measured values published in patent US12465050B2, “Compositions comprising a pyridine carboxylate herbicide and protoporphyrinogen oxidase (protox) inhibitor herbicides” (priority 2018, dated 2025).

Legend:
Type in all cases: in vivo
[1] = tested on: Hordeum vulgare (spring barley); test: Greenhouse postemergence phytotoxicity on crop HORVS
Excerpt: (§1) Greenhouse Trial Methodology—Evaluation of Postemergence Herbicidal Effect
(§2) Seeds of the desired test plant species were planted in a 90:10% v/v (volume/volume) mixture of PRO-MIX® BX (Premier Tech Horticulture, Quakertown, Pa., USA) and PROFILE® GREENS GRADE™ (Profile Products LLC, Buffalo Grove, Ill., USA) planting mixture, which typically has a pH of 5.2 to 6.2 and an organic matter content of at least 50 percent, in plastic pots with a surface area of 103.2 square centimeters (cm^2). In some aspects or embodiments, to help ensure good germination and healthy plants, a fungicide treatment and/or other chemical or physical treatment was applied. The plants were grown for 7-36 days (d) in a greenhouse with an approximate 14-hour (h) photoperiod which was maintained at about 23° C. during the day and 22° C. during the night. Nutrients and water were added on a regular basis and supplemental lighting was provided with overhead metal halide 1000-Watt lamps as necessary. The plants were employed for testing when they reached the second or third true leaf stage.
(§3) Emulsifiable concentrates of each of each pyridine carboxylate herbicide (Compound A or Compound B) were prepared at 100 grams acid equivalent per liter (g ae/L). The emulsifiable concentrates also included a safener, cloquintocet mexyl, at 120 grams active ingredient per liter (g ai/L). An aliquot of each emulsifiable concentrate was placed in a 25 mL glass vial and diluted with an aqueous mixture of 1.25% (v/v) ACTIROB® B esterified rapeseed oil (Bayer Crop Science, Research Triangle Park, N.C., USA) or MSO® Concentrate with LECI-TECH® methylated soybean oil (Loveland Products, Loveland, Colo., USA) to obtain concentrated stock solutions at the highest application rate for each herbicide, based upon a 12 milliliter (mL) application volume at a rate of 187 liters per hectare (L/ha). The concentrated stock solutions were further diluted with an aqueous mixture of 1.25% v/v ACTIROB® B or MSO® Concentrate with LECI-TECH® to obtain stock solutions at reduced application rates for each herbicide. Spray solutions of the herbicide combinations (Compound A or Compound B plus PROTOX inhibitor herbicide) were prepared by adding weighed amounts or aliquots of the PROTOX inhibitor herbicides to the stock solutions of Compound A or Compound B to form 12-mL spray solutions in two-way combinations.
(§4) The spray solutions were applied to the plant material with an overhead Mandel track sprayer equipped with 8002E nozzles calibrated to deliver 187 L/ha over an application area of 0.503 square meters (m^2) at a spray height of 18 inches (43 centimeters (cm)) above the average plant canopy. Control plants were sprayed in the same manner with the solvent blank. All pyridine carboxylate herbicide (component a) application rates are given as “g ae/ha” and all PROTOX inhibitor herbicide (component b) application rates are given as “g ai/ha.”
(§5) The treated plants and control plants were placed in a greenhouse as described above and watered by sub-irrigation to prevent wash-off of the test compounds. After 20-22 d, the condition of the test plants as compared with that of the control plants was determined visually and scored on a scale of 0 to 100 percent where 0 corresponds to no injury and 100 corresponds to complete kill.

Zea mays (maize) = test: Greenhouse postemergence phytotoxicity on crop ZEAMX
Excerpt: as §1, §2
(§6) Emulsifiable concentrates of each of each pyridine carboxylate herbicide (Compound A or Compound B) were prepared at 100 grams acid equivalent per liter (g ae/L). The emulsifiable concentrates also included a safener, cloquintocet mexyl, at 120 grams active ingredient per liter (g ai/L). […]
as §5

Avena fatua (wild oat) = test: Greenhouse postemergence herbicidal effect on AVEFA
Excerpt: as §1, §2, §6, §5

[2] = tested on: Veronica hederifolia (ivy-leaved speedwell); test: Greenhouse postemergence herbicidal effect on VERHE
Excerpt: as §1, §2
as §3, with “combinations. […]” for “combinations.”
as §5

[3] = tested on: Sinapis arvensis (wild mustard); test: Greenhouse postemergence herbicidal effect on SINAR
Excerpt: as §1, §2, §3, §4, §5

[4] = tested on: Veronica persica (Persian speedwell); test: Greenhouse postemergence herbicidal effect on VERPE
Excerpt: as §1, §2
as §3, with “combinations. […]” for “combinations.”
as §5

[5] = tested on: Rumex obtusifolius (broad-leaf dock); test: Greenhouse postemergence herbicidal effect on RUMOB
Excerpt: as §1, §2, §3, §4, §5

[6] = tested on: Papaver rhoeas (common poppy); test: Greenhouse postemergence herbicidal effect on PAPRH
Excerpt: as §1, §2
as §3, with “combinations. […]” for “combinations.”
as §5

[7] = tested on: Cyanus segetum (cornflower); test: Greenhouse postemergence herbicidal effect on CENCY
Excerpt: as §1, §2
as §3, with “combinations. […]” for “combinations.”
as §5

[8] = tested on: Brassica napus (spring rape); test: Greenhouse postemergence herbicidal effect on BRSNN
Excerpt: as §1, §2, §3, §4, §5

[9] = tested on: Polygonum convolvulus (wild buckwheat); test: Greenhouse postemergence herbicidal effect on POLCO
Excerpt: as §1, §2, §3, §4, §5

[10] = tested on: Matricaria inodora (scentless chamomile); test: Greenhouse postemergence herbicidal effect on MATIN
Excerpt: as §1, §2
as §3, with “combinations. […]” for “combinations.”
as §5

[11] = tested on: Matricaria discoidea (pineapple weed); test: Greenhouse postemergence herbicidal effect on MATMT
Excerpt: as §1, §2
as §3, with “combinations. […]” for “combinations.”
as §5

[12] = tested on: Viola arvensis (field violet); test: Greenhouse postemergence herbicidal effect on VIOAR
Excerpt: as §1, §2
as §3, with “combinations. […]” for “combinations.”
as §5

[13] = tested on: Cirsium arvense (Canadian thistle); test: Greenhouse postemergence herbicidal effect on CIRAR
Excerpt: as §1, §2, §3, §4, §5

[14] = Compound A 7.5, Carfentrazone-ethyl 0 g/ha
[15] = Compound A 7.5, Oxyfluorfen 0 g/ha
[16] = Compound A 7.5, Pyraclonil 0 g/ha
[17] = Compound A 7.5, Pyraflufen-ethyl 0 g/ha
[18] = Compound A 10, Carfentrazone-ethyl 0 g/ha
[19] = Compound A 10, Oxyfluorfen 0 g/ha
[20] = Compound A 10, Pyraclonil 0 g/ha
[21] = Compound A 10, Pyraflufen-ethyl 0 g/ha
[22] = Compound A 15, Oxyfluorfen 0 g/ha
[23] = Compound A 7.5, Saflufenacil 0 g/ha
[24] = Compound A 10, Saflufenacil 0 g/ha

In the case of N#CCOC(=O)c1nc(-c2ccc3cc[nH]c3c2F)c(F)c(N)c1Cl [Compound A, cyanomethyl 4-amino-3-chloro-5-fluoro-6-(7-fluoro-1H-indol-6-yl)pyridine-2-carboxylate], the “% visual injury, Obs” value [1, 14] is reported as 8%, the “% visual injury, Obs” value [1, 15] is reported as 0% and the “% visual injury, Obs” value [1, 16] is reported as 8%. For the same compound, the “% visual injury, Obs” value [1, 17] was 0%, the “% visual injury, Obs” value [1, 18] was 0% and the “% visual injury, Obs” value [1, 19] was 0%. For the same compound, the “% visual injury, Obs” value [1, 20] was 0%, the “% visual injury, Obs” value [1, 21] was 0% and the “% visual injury, Obs” value [1, 22] was 0%. For the same compound, the “% visual injury, Obs” value (Zea mays (maize); [23]) was 0%, the “% visual injury, Obs” value (Zea mays (maize); [24]) was 0% and the “% visual injury, Obs” value (Avena fatua (wild oat); Compound A 7.5, Bifenox 0 g/ha) was 0%. The “% visual injury, Obs” value (Avena fatua (wild oat); Compound A 10, Bifenox 0 g/ha) was 0%, the “% visual injury, Obs” value [2, 15] was 68% and the “% visual injury, Obs” value [2, 19] was 73%. For the same compound, the “% visual injury, Obs” value [2, 22] was 75%, the “% visual injury, Obs” value [3, 15] was 88% and the “% visual injury, Obs” value [3, 16] was 88%. For the same compound, the “% visual injury, Obs” value [3, 17] was 83%, the “% visual injury, Obs” value [3, 19] was 91% and the “% visual injury, Obs” value [3, 20] was 92%. For the same compound, the “% visual injury, Obs” value [3, 21] was 88%, the “% visual injury, Obs” value [3, 22] was 91% and the “% visual injury, Obs” value [4, 15] was 78%. The “% visual injury, Obs” value [4, 19] was 90%, the “% visual injury, Obs” value [4, 22] was 93% and the “% visual injury, Obs” value ([5]; Compound A 7.5, Bifenox 0 g/ha) was 13%. For the same compound, the “% visual injury, Obs” value [5, 23] was 20%, the “% visual injury, Obs” value ([5]; Compound A 10, Bifenox 0 g/ha) was 8% and the “% visual injury, Obs” value [5, 24] was 13%. The “% visual injury, Obs” value [6, 15] was 100%, the “% visual injury, Obs” value [6, 19] was 99% and the “% visual injury, Obs” value [6, 22] was 100%. For the same compound, the “% visual injury, Obs” value [7, 15] was 75%, the “% visual injury, Obs” value [7, 19] was 78% and the “% visual injury, Obs” value [7, 22] was 80%. The “% visual injury, Obs” value ([8]; Compound A 7.5, Bifenox 0 g/ha) was 23%, the “% visual injury, Obs” value [8, 16] was 55% and the “% visual injury, Obs” value [8, 23] was 65%. The “% visual injury, Obs” value ([8]; Compound A 10, Bifenox 0 g/ha) was 45%, the “% visual injury, Obs” value [8, 20] was 60% and the “% visual injury, Obs” value [8, 24] was 65%. For the same compound, the “% visual injury, Obs” value [9, 14] was 70%, the “% visual injury, Obs” value [9, 15] was 65% and the “% visual injury, Obs” value [9, 16] was 70%. The “% visual injury, Obs” value [9, 17] was 30%, the “% visual injury, Obs” value [9, 18] was 78% and the “% visual injury, Obs” value [9, 19] was 78%. For the same compound, the “% visual injury, Obs” value [9, 20] was 78%, the “% visual injury, Obs” value [9, 21] was 43% and the “% visual injury, Obs” value [9, 22] was 85%. The “% visual injury, Obs” value [10, 15] was 55%, the “% visual injury, Obs” value [10, 19] was 60% and the “% visual injury, Obs” value [10, 22] was 83%. The “% visual injury, Obs” value [11, 15] was 20%, the “% visual injury, Obs” value [11, 19] was 20% and the “% visual injury, Obs” value [11, 22] was 63%. The “% visual injury, Obs” value [12, 15] was 10%, the “% visual injury, Obs” value [12, 19] was 13% and the “% visual injury, Obs” value [12, 22] was 10%. For the same compound, the “% visual injury, Obs” value ([13]; Compound A 7.5, Bifenox 0 g/ha) was 70%, the “% visual injury, Obs” value [13, 15] was 50% and the “% visual injury, Obs” value [13, 17] was 40%. The “% visual injury, Obs” value ([13]; Compound A 10, Bifenox 0 g/ha) was 68%, the “% visual injury, Obs” value [13, 19] was 63% and the “% visual injury, Obs” value [13, 21] was 55%. For the same compound, the “% visual injury, Obs” value [13, 22] was 63%.
